Test results reported in US20140148419A1, “Treatment of Excessive Menstrual Bleeding Associated with Uterine Fibroids” (PREGLEM SA, priority 2011, published 2014).

System: premenopausal women with heavy uterine bleeding due to uterine fibroids
Experiment: Double-blind, randomized, placebo-controlled clinical study; menstrual bleeding assessed by pictorial blood loss assessment chart (PBAC), with or without later uterine artery embolization (UAE)
Format: in vivo, human
Conditions: for % Patient with PBAC < 75 at baseline / PBAC at baseline: before treatment; for PBAC at baseline / PBAC 3 months after treatment stop / PBAC 6 months after treatment stop / PBAC at week 13 of treatment: Mean +/- SD
Method: A double-blind, randomized, placebo-controlled study was conducted to evaluate the long term effect of ulipristal acetate in the treatment of uterine fibroids. Patients included premenopausal women 18-50 years with heavy uterine bleeding due to uterine fibroids who were eligible for surgery. These patients met the criteria of a Pictorial Bleeding Assessment Chart (PBAC) score >100 during days 1-8 of menstruation.
The patients were randomized in a 2:2:1 manner to receive for 12 weeks, either ulipristal acetate (UPA) 5 mg or ulipristal acetate 10 mg or placebo. In addition, all patients received concomitant iron therapy (1 tablet of 80 mg or iron once daily, Tardyfero®). The reference to 2:2:1 means that for every 5 patients, two would be randomized to receive UA 5 mg, two to receive UA 10 mg and one to receive placebo.
Forty-eight patients received a daily placebo treatment, 95 patients received a daily dose of 5 mg ulipristal acetate (Esmya®), and 98 patients received a daily dose of 10 mg ulipristal acetate (Esmya®). […] Thirty-three subjects underwent a Uterine Artery Embolization at or after week 13: 4 patients in the placebo group (group 4), 11 patients in the 5 mg ulipristal (Esmya®) group (group 5) and 18 patients in the 10 mg ulipristal (Esmya®)) group (group 6).
For study enrollment as well as follow-up assessment, menstrual bleeding was assessed using the pictorial blood loss assessment chart (PBAC) developed by Higham and colleagues (Higham J M, O'Brien P M, Shaw R W. Assessment of menstrual blood loss using a pictorial chart. Br J Obstet Gynaecol 1990; 97:734-9). The PBAC is one of the current standard methods used to objectively estimate menstrual blood loss and diagnose menorrhagia. Abnormal bleeding is defined as PBAC score >100 over 8 days of menstruation. Normal menstrual bleeding PBAC is <75. Amenorrhea is PBAC=0.
The PBAC score was assessed before treatment (Baseline), at week 13 after the end of treatment with ulipristal, at 3 months and 6 months after […].
The PBAC and the % of patients with a PBAC <75 was reported before treatment (Baseline), at week 13 after the end of treatment with ulipristal, at 3 months and 6 months after the treatment stop.

[1] = 5 mg daily, no UAE or any other surgery (Group 2)
[2] = 5 mg daily, no UAE or any other surgery (Group 2), listed as ulipristal
[3] = 5 mg daily, with UAE (Group 5), listed as ulipristal
[4] = 10 mg daily, no UAE or any other surgery (Group 3)
[5] = 10 mg daily, no UAE or any other surgery (Group 3), listed as ulipristal
[6] = 10 mg daily, with UAE (Group 6)
[7] = 10 mg daily, with UAE (Group 6), listed as ulipristal
[8] = 5 mg daily, with UAE performed after treatment stop (Group 5)
[9] = 10 mg daily, with UAE performed after treatment stop (Group 6)

Compound: CC(=O)O[C@]1(C(C)=O)CC[C@H]2[C@@H]3CCC4=CC(=O)CCC4=C3[C@@H](c3ccc(N(C)C)cc3)C[C@@]21C [Esmya, 17α-acetoxy-11β-[4-N,N-dimethylaminophenyl)-19-norpregna-4,9-diene-3,20-dione]
- % Patient with PBAC < 75, 3 months after end of treatment [1]: 15%
- % Patient with PBAC < 75, 6 months after end of treatment [1]: 17%
- % Patient with PBAC < 75 at week 13 of treatment [1]: 98%
- % Patient with PBAC < 75 at baseline [1]: 0%
- % Patient with PBAC < 75, 3 months after end of treatment [2]: 15%
- % Patient with PBAC < 75 at week 13 of treatment [2]: 98%
- % Patient with PBAC < 75, 3 months after end of treatment (5 mg daily, with UAE (Group 5)): 36%
- % Patient with PBAC < 75, 6 months after end of treatment (5 mg daily, with UAE (Group 5)): 27%
- % Patient with PBAC < 75 at week 13 of treatment (5 mg daily, with UAE (Group 5)): 100%
- % Patient with PBAC < 75 at baseline (5 mg daily, with UAE (Group 5)): 0%
- % Patient with PBAC < 75, 3 months after end of treatment [3]: 36%
- % Patient with PBAC < 75, 6 months after end of treatment [3]: 27%
- % Patient with PBAC < 75 at week 13 of treatment [3]: 100%
- % Patient with PBAC < 75, 3 months after end of treatment [4]: 17%
- % Patient with PBAC < 75, 6 months after end of treatment [4]: 26%
- % Patient with PBAC < 75 at week 13 of treatment [4]: 97%
- % Patient with PBAC < 75 at baseline [4]: 0%
- % Patient with PBAC < 75, 3 months after end of treatment [5]: 17%
- % Patient with PBAC < 75 at week 13 of treatment [5]: 97%
- % Patient with PBAC < 75, 3 months after end of treatment [6]: 60%
- % Patient with PBAC < 75, 6 months after end of treatment [6]: 53%
- % Patient with PBAC < 75 at week 13 of treatment [6]: 100%
- % Patient with PBAC < 75 at baseline [6]: 0%
- % Patient with PBAC < 75, 3 months after end of treatment [7]: 60%
- % Patient with PBAC < 75, 6 months after end of treatment [7]: 53%
- % Patient with PBAC < 75 at week 13 of treatment [7]: 100%
- PBAC at baseline (5 mg daily oral 12 weeks, no UAE or any other surgery (Group 2)): 419 +/− 281
- PBAC at baseline (5 mg daily oral 12 weeks, with UAE performed after treatment stop (Group 5)): 490 +/− 231
- PBAC 3 months after treatment stop [1]: 337 +/− 300
- PBAC 6 months after treatment stop [1]: 338 +/− 233
- PBAC at week 13 of treatment [1]: 13 +/− 69
- PBAC 3 months after treatment stop [8]: 202 +/− 102
- PBAC 6 months after treatment stop [8]: 207 +/− 117
- PBAC at week 13 of treatment [8]: 25 +/− 60
- PBAC at baseline (10 mg daily oral 12 weeks, no UAE or any other surgery (Group 3)): 340 +/− 187
- PBAC at baseline (10 mg daily oral 12 weeks, with UAE performed after treatment stop (Group 6)): 375 +/− 135
- PBAC 3 months after treatment stop [4]: 417 +/− 669
- PBAC 6 months after treatment stop [4]: 203 +/− 161
- PBAC at week 13 of treatment [4]: 2 +/− 13
- PBAC 3 months after treatment stop [9]: 120 +/− 55
- PBAC 6 months after treatment stop [9]: 136 +/− 70
- PBAC at week 13 of treatment [9]: 0 +/− 0
- effect for controlling menstrual bleeding resulting from oral administration prior to UAE (oral ulipristal prior to UAE versus ulipristal alone and UAE alone): synergistic effect
